Data reported in patent US20070244184A1, “GLYCOSIDASE INHIBITORS AND METHODS OF SYNTHESIZING SAME” (SIMON FRASER UNIVERSITY, priority 2006, published 2007).
Counter-ions that a name gives are not always drawn. Like-named read-outs stand apart in the source and are kept apart here. Blank lines part the entries; values can stand above or below the compound they belong to.

Assays:
[1] = biological target: T1, recombinant human maltase glucoamylase (MGA) (Homo sapiens, UniProt O43451); test: Recombinant MGA inhibition, maltose substrate, glucose oxidase assay (Ki); assay type: biochemical; conditions: for Ki: maltose substrate, read-out: Ki against recombinant human MGA
Experimental: (§1) Enzyme Activity Assays: Measurement of dGMII inhibition was carried out as outlined in the literature.^12 Analysis of recombinant MGA inhibition and determination of the kinetic constants for competitive inhibition have been described.^60 Briefly, analysis of MGA inhibition was performed using maltose as the substrate, and measuring the release of glucose. Reactions were carried out in 100 mM MES buffer pH 6.5 at 37° C. The reaction was stopped by boiling for 3 min. 20 μL aliquots were taken and added to 100 μL of glucose oxidase assay reagent (Sigma) in a 96-well plate. Reactions were developed for 1 hour and absorbance was measured at 450 nm to determine the amount of glucose produced by MGA activity in the reaction. All reactions were performed in triplicate and absorbance measurements were averaged to give a final result.
Enzyme Kinetics: Kinetic parameters of recombinant MGA were determined using the glucose oxidase assay to follow the production of glucose upon addition of enzyme (15 nM) at increasing maltose concentrations (from 2.5 mM to 30 mM) with a reaction time of 15 minutes. The Ki value was determined by measuring the rate of maltose hydrolysis by MGA at varying inhibitor concentrations. Data were plotted in Lineweaver-Burk plots (1/rate vs. 1/[substrate]) and the Ki value was determined by the equation Ki=Km[I]/(Vmax)s−Km, where “s” is the slope of the line. The Ki reported was an average of the Ki values obtained from each of the different inhibitor concentrations.
Enzyme Activity Assay. Analysis of MGA inhibition was performed using maltose as the substrate, and measuring the release of glucose. Reactions were carried out in 100 mM MES buffer pH 6.5 at 37° C. for 15 min. The reaction was stopped by boiling for 3 min. 20 μL aliquots were taken and added to 100 μL of glucose oxidase assay reagent (Sigma) in a 96-well plate. Reactions were allowed to proceed for 1 h and absorbance was measured at 450 nm to determine the amount of glucose produced by MGA activity in the reaction. One unit of activity is defined as the hydrolysis of one […] of maltose per minute. All reactions were performed in triplicate and absorbance measurements were averaged to give a final result.
Enzyme Kinetics. Kinetic parameters of recombinant MGA were determined using the glucose oxidase assay to follow the production of glucose upon addition of enzyme (15 nM) at increasing maltose concentrations (from 1 mM-3.5 mM) with a reaction time of 15 min. The program GraFit 4.0.14 was used to fit the data to the Michaelis-Menten equation and estimate the kinetic parameters, Km and Vmax, of the enzyme. Ki values for each inhibitor were determined by measuring the rate of maltose hydrolysis by MGA at varying inhibitor concentrations. Data were plotted in Lineweaver-Burk plots (1/rate vs. 1/[substrate]) and Ki values were determined by the equation Ki=Km[I]/(Vmax)m−Km, where “m” is the slope of the line. The Ki reported for each inhibitor was estimated by averaging the Ki values obtained from each of the different inhibitor concentrations.

[2] = biological target: T1, recombinant human maltase glucoamylase (MGA); conditions: cited from earlier work
[3] = biological target: T2, Drosophila melanogaster Golgi α-mannosidase II (dGMII) (Drosophila melanogaster, UniProt Q24451); conditions: read-out: IC50 against dGMII, cited from earlier work
T2 sequence (Q24451 1-1108): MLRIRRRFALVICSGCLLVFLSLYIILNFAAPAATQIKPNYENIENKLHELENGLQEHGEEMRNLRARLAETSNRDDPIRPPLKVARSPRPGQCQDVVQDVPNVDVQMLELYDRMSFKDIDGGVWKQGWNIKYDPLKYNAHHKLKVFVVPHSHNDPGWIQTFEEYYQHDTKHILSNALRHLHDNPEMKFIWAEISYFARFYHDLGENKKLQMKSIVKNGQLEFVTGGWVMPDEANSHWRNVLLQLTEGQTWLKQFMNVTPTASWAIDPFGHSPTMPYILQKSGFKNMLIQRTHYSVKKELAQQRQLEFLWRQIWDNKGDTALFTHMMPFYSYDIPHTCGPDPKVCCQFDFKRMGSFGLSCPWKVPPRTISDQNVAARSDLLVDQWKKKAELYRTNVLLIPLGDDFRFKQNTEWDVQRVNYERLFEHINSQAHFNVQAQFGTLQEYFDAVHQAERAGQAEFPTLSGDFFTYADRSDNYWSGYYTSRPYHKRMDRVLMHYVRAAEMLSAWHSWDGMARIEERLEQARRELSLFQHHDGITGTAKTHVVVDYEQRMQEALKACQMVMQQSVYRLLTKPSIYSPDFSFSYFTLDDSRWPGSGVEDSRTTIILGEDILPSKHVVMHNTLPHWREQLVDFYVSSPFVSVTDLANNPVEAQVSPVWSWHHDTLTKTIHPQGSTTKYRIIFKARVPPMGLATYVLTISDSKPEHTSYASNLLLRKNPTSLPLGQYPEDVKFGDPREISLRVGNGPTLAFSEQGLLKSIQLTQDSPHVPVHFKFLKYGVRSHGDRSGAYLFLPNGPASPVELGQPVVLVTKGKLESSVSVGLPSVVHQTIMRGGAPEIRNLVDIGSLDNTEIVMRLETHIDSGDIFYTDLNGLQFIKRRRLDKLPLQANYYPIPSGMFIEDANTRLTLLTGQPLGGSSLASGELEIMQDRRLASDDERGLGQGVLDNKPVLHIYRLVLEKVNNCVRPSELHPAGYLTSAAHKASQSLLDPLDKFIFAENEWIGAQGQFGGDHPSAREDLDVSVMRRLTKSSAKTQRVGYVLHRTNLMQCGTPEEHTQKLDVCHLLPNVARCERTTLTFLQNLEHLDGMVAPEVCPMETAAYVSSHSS

[4] = biological target: T1, recombinant human maltase glucoamylase (MGA); test: MGA inhibition, p-nitrophenyl α-D-glucopyranoside substrate (IC50); assay type: biochemical; conditions: p-nitrophenyl α-D-glucopyranoside as substrate
Experimental: The assays were carried out in 96-well microtiter plates containing 100 mM MES buffer pH 6.5, inhibitor and pNP-glucose as substrate, with a final volume of 50 μL. Reactions were incubated at 37° C. for 35 min and terminated by addition of 50 μL of 0.5 M sodium carbonate. […] All reactions were performed in triplicate and absorbance measurements were averaged to give a final result.

[5] = biological target: T2, Drosophila melanogaster Golgi α-mannosidase II (dGMII); test: dGMII inhibition; assay type: biochemical
Experimental: as §1

T1 sequence (O43451 87-954 limits assumed): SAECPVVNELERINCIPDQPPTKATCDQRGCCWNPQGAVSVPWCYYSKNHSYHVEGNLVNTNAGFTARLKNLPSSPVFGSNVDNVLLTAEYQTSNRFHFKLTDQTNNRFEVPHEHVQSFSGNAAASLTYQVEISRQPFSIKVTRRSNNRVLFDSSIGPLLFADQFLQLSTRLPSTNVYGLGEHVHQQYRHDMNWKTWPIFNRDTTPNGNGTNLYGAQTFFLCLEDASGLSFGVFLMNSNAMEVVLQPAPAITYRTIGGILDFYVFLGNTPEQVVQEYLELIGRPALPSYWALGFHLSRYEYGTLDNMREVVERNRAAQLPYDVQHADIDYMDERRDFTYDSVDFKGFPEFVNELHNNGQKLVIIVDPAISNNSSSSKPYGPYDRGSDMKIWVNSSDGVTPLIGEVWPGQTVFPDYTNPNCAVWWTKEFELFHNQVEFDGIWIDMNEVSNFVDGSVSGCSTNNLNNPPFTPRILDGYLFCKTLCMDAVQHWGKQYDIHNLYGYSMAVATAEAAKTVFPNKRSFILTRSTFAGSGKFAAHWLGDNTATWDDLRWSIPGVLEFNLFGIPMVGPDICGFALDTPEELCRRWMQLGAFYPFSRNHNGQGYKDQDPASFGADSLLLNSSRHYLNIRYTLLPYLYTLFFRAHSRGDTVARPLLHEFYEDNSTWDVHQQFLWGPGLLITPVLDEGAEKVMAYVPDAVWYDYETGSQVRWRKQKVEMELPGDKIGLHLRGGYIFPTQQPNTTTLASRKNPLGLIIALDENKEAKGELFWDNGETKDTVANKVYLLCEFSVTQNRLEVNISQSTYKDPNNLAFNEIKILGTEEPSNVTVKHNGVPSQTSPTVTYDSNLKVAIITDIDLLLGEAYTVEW

Structure (SMILES): O=S(=O)([O-])OC(CO)C(O)C(O)C[Se+]1CC(O)C(O)C1CO [Compound 81, 1,4-Dideoxy-1,4[[2R,3R,4R]-2,3,5-trihydroxy-4-(sulfooxy)-pentyl]-epi-selenoniumylidene]-D-arabinitol Inner salt]
- inhibitory activity against recombinant human MGA (in words) [1]: not active

Structure (SMILES): O=S(=O)([O-])OC(CO)C(O)C(O)C[Se+]1CC(O)C(O)C1CO [Compound 79, 1,4-Dideoxy-1,4[[2S,3S,4S]-2,3,5-trihydroxy-4-(sulfooxy)-pentyl]-epi-selenoniumylidene]-D-arabinitol Inner salt]
- Ki [1]: 53 ± 5 µM

- Ki [1]: 20 ± 4 µM
Structure (SMILES): O=S(=O)([O-])OC(CO)C(O)C(O)C[S+]1CC(O)C(O)C1CO (stereo not shown) [Compound 78]

Structure (SMILES): O=S(=O)([O-])OC(CO)C(O)C[Se+]1CC(O)C(O)C1CO (stereo not shown) [blintol]
- Ki ([2]; read-out: Ki against MGA, reference compounds, unit inferred): 0.49 ± 0.05 µM
- IC50 [3]: ~7500 µM

- IC50 [4]: 50 µM
Structure (SMILES): CCCCCC[S+]1CC(O)C(O)C1CO [Compound 46, 1,4-Dideoxy-1,4-[(1-hexyl)-(R)-episulfoniumylidene]-D-arabinitol chloride]

- IC50 [4]: 50 µM
Structure (SMILES): CC(C)CC[S+]1CC(O)C(O)C1CO [Compound 50, 1,4-Dideoxy-1,4-[[1-(3-methyl)-butyl]-(R)-episulfoniumylidene]-D-arabinitol chloride]

Structure (SMILES): O[C@H]1[C@H]2[C@H](O)CCCN2C[C@H]1O [swainsonine]
- IC50 ([3]; swainsonine, literature value): 0.02 to 0.04 µM

- inhibitory activity against recombinant human MGA (in words) [1]: not active
Structure (SMILES): O=S(=O)([O-])O[C@H](CO)[C@H](O)[C@@H](O)C[S+]1C[C@@H](O)[C@H](O)[C@H]1CO (stereo partly drawn) [Compound 80, 1,4-Dideoxy-1,4[[2R,3R,4R]-2,3,5-trihydroxy-4-(sulfooxy)-pentyl]-epi-sulfoniumylidene]-D-arabinitol Inner salt]

Structure (SMILES): O=S(=O)([O-])O[C@@H]([C@H](O)C[S@+]1C[C@@H](O)[C@H](O)[C@H]1CO)[C@@H](O)CO [Compound 89]
- inhibitory activity against MGA (in words) [2]: inactive

Structure (SMILES): O=C([O-])[C@H](O)[C@H](O)[C@H](O)C[S@@+]1C[C@H](O)[C@@H](O)[C@@H]1CO [Compound 4, 1,4-Dideoxy-1,4-[[(2′S,3′S,4′R)-2′,3′,4′-trihydroxy-4′-carboxybutyl]-episulfoniumyl-idene]-L-arabinitol inner salt]
- inhibitory activity against recombinant human MGA (in words) [1]: Only compound 5, with the D-arabinitol configuration in the heterocyclic ring displayed by salacinol 1, was found to be active

Structure (SMILES): O=C(O)[C@@H](O)[C@@H](O)[C@H](O)[C@@H](O)CN1C[C@H](O)[C@@H](O)[C@@H]1CO [Compound 20, 6′-((1,4-Dideoxy-1,4-imino-L-arabinitol)-4-N-ammonium)-6′-deoxy-L-gulonate]
- inhibitory activity against recombinant human MGA (in words) [1]: not active on either enzyme
- activity against dGMII (in words) [5]: not active on either enzyme

- IC50 [4]: 15 µM
Structure (SMILES): CCCCCCCCCCCCCCCCCC[S+]1CC(O)C(O)C1CO [Compound 49, 1,4-Dideoxy-1,4-[(1-octadecyl)-(R)-episulfoniumylidene]-D-arabiiiitol chloride]

Structure (SMILES): O=S(=O)([O-])OC(CO)C(O)C[S+]1CC(O)C(O)C1CO (stereo not shown) [salacinol]
- IC50 [3]: ~7500 µM

Structure (SMILES): O=S(=O)([O-])OC(C(O)C[S+]1CC(O)C(O)C1CO)C(O)C(O)C(O)CO (stereo not shown) [kotalanol]
- IC50 [3]: ~7500 µM

- IC50 [4]: 25 µM
Structure (SMILES): CCCCCCCCCCCCCC[S+]1CC(O)C(O)C1CO [Compound 44, 1,4-Dideoxy-1,4-[(1-tetradecyl)-(R)-episulfoniumylidene]-D-arabinitol triflate]

- melting point: 86 to 88 °C
Structure (SMILES): CCCCCCCCCCCCCC[S+]1CC(O)C(O)C1CO (as salt: chloride) [Compound 48, 1,4-Dideoxy-1,4-[(1-tetradecyl)-(R)-episulfoniumylidene]-D-arabinitol chloride]

- melting point: 95 to 97 °C
Structure (SMILES): CCCCCCCCCCCCCCCCCC[S+]1CC(O)C(O)C1CO (as salt: chloride) [Compound 49, 1,4-Dideoxy-1,4-[(1-octadecyl)-(R)-episulfoniumylidene]-D-arabiiiitol chloride]

Structure (SMILES): O=C(O)[C@@H](O)[C@@H](O)[C@H](O)[C@@H](O)CN1C[C@@H](O)[C@H](O)[C@H]1CO [Compound 21, 6′-((1,4-Dideoxy-1,4-imino-D-arabinitol)-4-N-ammonium)-6′-deoxy-L-gulonic acid hydro-chloride]
- Ki [1]: 21 µM
- improvement of dGMII inhibition over salacinol, kotalanol and other analogues ([5]; 0.3 mM vs approximately 7.5 mM): 25 fold
- IC50 ([5]; read-out: IC50 against dGMII): 300 µM

- IC50 [4]: 30 µM
Structure (SMILES): CCCCCCCCCCCCCC[S+]1CC(O)C(O)C1CO [Compound 48, 1,4-Dideoxy-1,4-[(1-tetradecyl)-(R)-episulfoniumylidene]-D-arabinitol chloride]

- Ki [1]: 10 µM
Structure (SMILES): O=C([O-])C(O)C(O)C(O)C[S+]1CC(O)C(O)C1CO [Compound 5, 1,4-Dideoxy-1,4-[[(2′S,3′S,4′R)-2′,3′,4′-trihydroxy-4′-carboxybutyl]-episulfoniumyl-idene]-D-arabinitol inner salt]

- melting point: 69 to 71 °C
Structure (SMILES): CCCCCCCCCCCCCC[S+]1CC(O)C(O)C1CO (as salt: triflate) [Compound 44, 1,4-Dideoxy-1,4-[(1-tetradecyl)-(R)-episulfoniumylidene]-D-arabinitol triflate]
